Laboratory results from ChEMBL document CHEMBL3044748, “Phyllostictines AD, oxazatricycloalkenones produced by Phyllosticta cirsii, a potential mycoherbicide for Cirsium arvense biocontrol” (Tetrahedron, 2008).
Calls of active or inactive are those of the source. No cut-off for these calls is given here.

Experiments:
[1] = tested on: Cirsium arvense; test: Phytotoxic activity against Cirsium arvense (Canada thistle) assessed as necrosis spot at 6 x 10^-3 M after 3 days by leaf puncture assay; type: functional, organism-based
[2] = tested on: Escherichia coli; test: Antibacterial activity against Escherichia coli up to 100 ug/disk; type: functional, organism-based
[3] = tested on: Geotrichum candidum; test: Antifungal activity against Galactomyces geotrichum up to 100 ug/disk; type: functional, organism-based
[4] = tested on: Artemia salina; test: Zootoxic activity against larvae of Artemia salina (brine shrimp) assessed as mortality; type: ADME, organism-based; details: in vivo
[5] = tested on: Lactobacillus sp.; test: Antibacterial activity against Lactobacillus sp. at 5 ug/disk; type: functional, organism-based
[6] = Zootoxic activity against larvae of Artemia salina (brine shrimp) assessed as mortality at 10^-4 M; type: ADME, organism-based; details: in vivo

SMILES	Activity [1]	Activity [2]	Activity [3]	Activity [4]	Activity [5]	mortality at 100 µM [6]
CO[C@]12OC/C(=C3\C(=O)N(C)CC[C@]3(C)C(=O)CCCC[C@@H]1O)[C@@H]2O	Active	–	–	–	–	–
CCN1C(=O)/C2=C3\CO[C@@](OC)([C@@H](O)CCCCC[C@]21C(C)O)[C@H]3O (some centres not stated)	inactive	–	–	–	–	–
CCN1C(=O)/C2=C3\CO[C@@](OC)([C@@H](O)CCC[C@]21C)[C@H]3O [PHYLLOSTICTINE B]	Active	inactive	inactive	Non-toxic	Active	–
CCN1C(=O)/C2=C3\CO[C@@](OC)([C@@H](O)CCCCC[C@]21C)[C@H]3O [PHYLLOSTICTINE A]	Active	inactive	inactive	–	Active	24%
